Legend:
Format in all cases: in vivo
[1] = tested on: galium (catchweed bedstraw, Galium aparine); assay: Test C preemergence, plant response rating
[2] = tested on: geranium, cutleaf (cutleaf geranium, Geranium dissectum); assay: Test C postemergence, plant response rating; conditions: for Geranium, Cutleaf plant response rating: scale 0 to 100 (0 no effect, 100 complete control)
Procedure, shortened: (§1)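 Visual injury score, 0 = no effect, 100 = complete control, assigned against untreated controls after 13 to 15 d in the greenhouse. Compounds were applied in a surfactant-containing non-phytotoxic solvent mix, preemergence to seeded loam/sand or silt loam soil, or postemergence to 1- to 4-leaf plants (2 to 18 cm).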

[3] = tested on: windgrass (Apera spica-venti); assay: Test C postemergence, plant response rating
Procedure, shortened: as §1

[4] = tested on: buckwheat, wild (wild buckwheat, Polygonum convolvulus); assay: Test C postemergence, plant response rating; conditions: for Buckwheat, Wild plant response rating: scale 0 to 100 (0 no effect, 100 complete control)
Procedure, shortened: as §1

[5] = tested on: wild poinsettia (Euphorbia heterophylla); assay: Test C postemergence, plant response rating; conditions: for Poinsettia, Wild plant response rating: scale 0 to 100 (0 no effect, 100 complete control)
Procedure, shortened: as §1

[6] = tested on: pigweed, palmer (palmer pigweed, Amaranthus palmeri); assay: Test C postemergence, plant response rating; conditions: for Pigweed, Palmer plant response rating: scale 0 to 100 (0 no effect, 100 complete control)
Procedure, shortened: as §1

[7] = tested on: wild mustard (Sinapis arvensis); assay: Test C postemergence, plant response rating; conditions: for Mustard, Wild plant response rating: scale 0 to 100 (0 no effect, 100 complete control)
Procedure, shortened: as §1

[8] = tested on: speedwell (bird's-eye speedwell, Veronica persica); assay: Test C postemergence, plant response rating; conditions: for Speedwell plant response rating: scale 0 to 100 (0 no effect, 100 complete control)
Procedure, shortened: as §1

[9] = tested on: field violet (Viola arvensis); assay: Test C postemergence, plant response rating; conditions: for Field Violet plant response rating: scale 0 to 100 (0 no effect, 100 complete control)
Procedure, shortened: as §1

[10] = tested on: johnsongrass (Sorghum halepense); assay: Test C postemergence, plant response rating; conditions: for Johnsongrass plant response rating: scale 0 to 100 (0 no effect, 100 complete control)
Procedure, shortened: as §1

[11] = tested on: Canada thistle (Cirsium arvense); assay: Test C postemergence, plant response rating; conditions: for Canada Thistle plant response rating: scale 0 to 100 (0 no effect, 100 complete control)
Procedure, shortened: as §1

[12] = tested on: nightshade (eastern black nightshade, Solanum ptycanthum); assay: Test C postemergence, plant response rating; conditions: for Nightshade plant response rating: scale 0 to 100 (0 no effect, 100 complete control)
Procedure, shortened: as §1

[13] = tested on: field poppy (Papaver rhoeas); assay: Test C postemergence, plant response rating; conditions: for Field Poppy plant response rating: scale 0 to 100 (0 no effect, 100 complete control)
Procedure, shortened: as §1

[14] = tested on: surinam grass (Brachiaria decumbens); assay: Test C postemergence, plant response rating
Procedure, shortened: as §1

kochia (Kochia scoparia) = assay: Test C preemergence, plant response rating
[15] = tested on: pigweed, palmer (palmer pigweed, Amaranthus palmeri); assay: Test C preemergence, plant response rating
[16] = tested on: windgrass (Apera spica-venti); assay: Test C preemergence, plant response rating
[17] = tested on: johnsongrass (Sorghum halepense); assay: Test C preemergence, plant response rating
[18] = 125 g ai/ha, scale 0 to 100 (0 no effect, 100 complete control)

Structure (SMILES): CCCC(=O)c1c(Oc2ncc(Cl)cn2)cccc1C(F)(F)F [Compound 136]
- Plant response rating, Galium ([1]; 31 g ai/ha, scale 0 to 100): 0
- Plant response rating, Galium ([1]; 62 g ai/ha, scale 0 to 100): 50
- Plant response rating, Galium ([1]; 125 g ai/ha, scale of 0 to 100): 90
- Plant response rating, Geranium, Cutleaf ([2]; 16 g ai/ha, scale of 0 to 100): 15
- Plant response rating, Geranium, Cutleaf ([2]; 31 g ai/ha, scale 0 to 100): 25
- Geranium, Cutleaf plant response rating ([2]; 62 g ai/ha): 50
- Geranium, Cutleaf plant response rating ([2]; 125 g ai/ha): 45
- Plant response rating, Windgrass ([3]; 16 g ai/ha, scale of 0 to 100): 5
- Plant response rating, Windgrass ([3]; 31 g ai/ha, scale 0 to 100): 10
- Windgrass plant response rating [3, 18]: 30
- Plant response rating, Buckwheat, Wild ([4]; 16 g ai/ha, scale of 0 to 100): 50
- Plant response rating, Buckwheat, Wild ([4]; 31 g ai/ha, scale 0 to 100): 60
- Buckwheat, Wild plant response rating ([4]; 62 g ai/ha): 90
- Buckwheat, Wild plant response rating ([4]; 125 g ai/ha): 80
- Plant response rating, Poinsettia, Wild ([5]; 16 g ai/ha, scale of 0 to 100): 40
- Plant response rating, Poinsettia, Wild ([5]; 31 g ai/ha, scale 0 to 100): 65
- Poinsettia, Wild plant response rating ([5]; 62 g ai/ha): 70
- Poinsettia, Wild plant response rating ([5]; 125 g ai/ha): 75
- Plant response rating, Pigweed, Palmer ([6]; 16 g ai/ha, scale of 0 to 100): 50
- Plant response rating, Pigweed, Palmer ([6]; 31 g ai/ha, scale 0 to 100): 55
- Pigweed, Palmer plant response rating ([6]; 62 g ai/ha): 70
- Pigweed, Palmer plant response rating ([6]; 125 g ai/ha): 70
- Plant response rating, Mustard, Wild ([7]; 16 g ai/ha, scale of 0 to 100): 85
- Plant response rating, Mustard, Wild ([7]; 31 g ai/ha, scale 0 to 100): 95
- Mustard, Wild plant response rating ([7]; 62 g ai/ha): 85
- Mustard, Wild plant response rating ([7]; 125 g ai/ha): 100
- Plant response rating, Speedwell ([8]; 16 g ai/ha, scale of 0 to 100): 75
- Plant response rating, Speedwell ([8]; 31 g ai/ha, scale 0 to 100): 80
- Speedwell plant response rating ([8]; 62 g ai/ha): 80
- Speedwell plant response rating ([8]; 125 g ai/ha): 85
- Plant response rating, Field Violet ([9]; 16 g ai/ha, scale of 0 to 100): 85
- Plant response rating, Field Violet ([9]; 31 g ai/ha, scale 0 to 100): 90
- Field Violet plant response rating ([9]; 62 g ai/ha): 95
- Field Violet plant response rating ([9]; 125 g ai/ha): 100
- Plant response rating, Johnsongrass ([10]; 16 g ai/ha, scale of 0 to 100): 5
- Plant response rating, Johnsongrass ([10]; 31 g ai/ha, scale 0 to 100): 5
- Johnsongrass plant response rating ([10]; 62 g ai/ha): 10
- Johnsongrass plant response rating ([10]; 125 g ai/ha): 15
- Plant response rating, Canada Thistle ([11]; 16 g ai/ha, scale of 0 to 100): 65
- Plant response rating, Canada Thistle ([11]; 31 g ai/ha, scale 0 to 100): 75
- Canada Thistle plant response rating ([11]; 62 g ai/ha): 85
- Canada Thistle plant response rating ([11]; 125 g ai/ha): 85
- Plant response rating, Nightshade ([12]; 16 g ai/ha, scale of 0 to 100): 70
- Plant response rating, Nightshade ([12]; 31 g ai/ha, scale 0 to 100): 75
- Nightshade plant response rating ([12]; 62 g ai/ha): 70
- Nightshade plant response rating ([12]; 125 g ai/ha): 80
- Plant response rating, Field Poppy ([13]; 16 g ai/ha, scale of 0 to 100): 65
- Plant response rating, Field Poppy ([13]; 31 g ai/ha, scale 0 to 100): 85
- Field Poppy plant response rating ([13]; 62 g ai/ha): 80
- Field Poppy plant response rating ([13]; 125 g ai/ha): 90
- Plant response rating, Surinam Grass ([14]; 16 g ai/ha, scale of 0 to 100): 5
- Plant response rating, Surinam Grass ([14]; 31 g ai/ha, scale 0 to 100): 5
- Surinam Grass plant response rating [14, 18]: 10
- Plant response rating, Kochia (kochia (Kochia scoparia); 31 g ai/ha, scale 0 to 100): 80
- Plant response rating, Kochia (kochia (Kochia scoparia); 62 g ai/ha, scale 0 to 100): 85
- Plant response rating, Kochia (kochia (Kochia scoparia); 125 g ai/ha, scale of 0 to 100): 98
- Plant response rating, Pigweed, Palmer ([15]; 31 g ai/ha, scale 0 to 100): 75
- Plant response rating, Pigweed, Palmer ([15]; 62 g ai/ha, scale 0 to 100): 100
- Plant response rating, Pigweed, Palmer ([15]; 125 g ai/ha, scale of 0 to 100): 100
- Plant response rating, Windgrass ([16]; 31 g ai/ha, scale 0 to 100): 30
- Plant response rating, Windgrass ([16]; 62 g ai/ha, scale 0 to 100): 85
- Plant response rating, Windgrass ([16]; 125 g ai/ha, scale of 0 to 100): 100
- Plant response rating, Johnsongrass ([17]; 31 g ai/ha, scale 0 to 100): 25
- Plant response rating, Johnsongrass ([17]; 62 g ai/ha, scale 0 to 100): 35
- Plant response rating, Johnsongrass ([17]; 125 g ai/ha, scale of 0 to 100): 70

Source: patent US11053204B2, “Pyrimidinyloxy benzene derivatives as herbicides” (FMC Corporation, priority 2015, dated 2021)
